Several values for one entry are separate records, joined by “and”; a condition that tells them apart may be missing. Equal values may be shown once.
How the values were obtained:
[1] = target: human LHCGR (Homo sapiens, UniProt P22888); experiment: HitHunter cAMP XS+ assay, cAMP Hunter cell line LHCGR; format: cell-based; conditions: for RLU: replicates (1),(2)
Text: Results are reported as raw RLU values and represent the
mean ± SEM of 2 technical replicates.

[2] = target: T1, WT RXFP1 (Homo sapiens, UniProt Q9HBX9); experiment: HTRF cAMP assay in HEK293T cells transiently transfected with WT RXFP1; format: cell-based
T1 construct: expressed in transfected cells; host or cells: HEK293T, transient transfection, pcDNA3.1/Zeo(+)
T1 sequence (Q9HBX9 1-757): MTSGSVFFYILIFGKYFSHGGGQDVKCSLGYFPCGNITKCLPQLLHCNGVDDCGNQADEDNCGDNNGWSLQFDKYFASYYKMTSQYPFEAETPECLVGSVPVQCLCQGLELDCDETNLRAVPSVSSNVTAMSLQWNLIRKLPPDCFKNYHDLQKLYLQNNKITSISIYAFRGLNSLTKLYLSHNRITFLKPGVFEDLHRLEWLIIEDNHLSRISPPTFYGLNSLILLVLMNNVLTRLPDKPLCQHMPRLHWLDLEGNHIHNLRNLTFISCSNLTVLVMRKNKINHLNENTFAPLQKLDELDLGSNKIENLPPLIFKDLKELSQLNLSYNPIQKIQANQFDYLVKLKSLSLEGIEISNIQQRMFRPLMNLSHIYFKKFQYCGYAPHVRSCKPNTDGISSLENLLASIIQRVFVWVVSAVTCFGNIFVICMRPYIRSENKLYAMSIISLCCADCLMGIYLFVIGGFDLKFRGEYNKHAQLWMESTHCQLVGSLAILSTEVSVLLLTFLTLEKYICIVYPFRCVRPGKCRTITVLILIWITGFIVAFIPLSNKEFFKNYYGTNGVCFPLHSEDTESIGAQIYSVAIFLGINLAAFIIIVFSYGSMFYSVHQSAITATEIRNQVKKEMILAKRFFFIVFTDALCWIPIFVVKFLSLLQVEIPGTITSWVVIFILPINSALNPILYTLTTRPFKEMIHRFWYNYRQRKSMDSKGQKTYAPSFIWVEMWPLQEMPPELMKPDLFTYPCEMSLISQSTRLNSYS
Procedure: Fig. 2 6641 is an allosteric agonist of RXFP2. a HEK-RXFP2 cells co-treated with serial dilutions of INSL3 B dimer antagonist and 30 nM INSL3 or 0.28 µM 6641. HTRF cAMP dose-response inhibition curves were normalized to activity without antagonist co-treatment as 0% inhibition. b HTRF cAMP assay in HEK293T cells transiently transfected with WT or chimeric receptors. Chimera RXFP2-1 contains the extracellular domain of RXFP2 and the transmembrane domain of RXFP1, while chimera RXFP1-2 contains the extracellular domain of RXFP1 and the transmembrane domain of RXFP2. For each receptor, cAMP response induced by INSL3 and 6641 was normalized to FSK (2 µM) as 100% efficacy and DMSO vehicle as 0% efficacy. Emax and EC50 were calculated using four parameter nonlinear fit dose-response curves. Results are expressed as mean ± SEM of 3 independent experiments. Diagrams of the chimeric receptors were produced using GPCRdb.org[58], [59].
Complementary RXFP2-1 and RXFP1-2 chimeric receptors were used to further investigate the involvement of the RXFP2 extracellular and transmembrane domains on 6641 activity. RXFP2-1 has the extracellular domain of RXFP2 and transmembrane domain of RXFP1, and RXFP1-2 is its complement.
The HTRF Gs dynamic cAMP assay kit (CisBio, Bedford, MA) was used to measure intracellular cAMP accumulation in HEK293T cells (ATCC, Manassas, VA)[56]. […] The cell stock was verified mycoplasma free and authenticated by ATCC. Transient transfection was accomplished by treating cells in a 6-well plate with a mixture of 2 μg plasmid and 6 μL Lipofectamine 2000 (Invitrogen, Waltham, MA) per manufacturer’s protocol and incubating overnight. For cAMP measurement in 96-well format, HEK293T cells stably transfected with human RXFP2 (HEK-RXFP2), human RXFP1 (HEK-RXFP1), mouse Rxfp1 (HEK-Rxfp1) or transiently transfected with human RXFP1-RXFP2 chimeric receptors were seeded between 7500 and 30,000 cells per well, depending on cell line responsiveness, in serum-free DMEM medium and incubated overnight at 37 °C, 5% CO2. After 18 h, cells were treated with a titration of compound, 2 μM forskolin, or DMSO vehicle. Control wells were also treated with a titration of INSL3 (Phoenix Pharmaceuticals, Burlingame, CA) or human recombinant relaxin 2 (Peprotech, Cranbury, NJ). For the RXFP2 antagonist experiment, cells were co-treated with 0.28 μM compound or 30 nM INSL3 and a titration of the INSL3 B dimer antagonist[38],[39]. For the INSL3 allosteric modulation experiment, cells were co-treated with 0.025, 0.0025, or 0.00025 μM of compound and a titration of INSL3. […] Plates were incubated for 1 h at room temperature and the signal was read on a CLARIOstar plate reader (BMG Labtech, Ortenberg, Germany) at 665 and 620 nm emission wavelengths.

human LHCGR, sequence (P22888 27-699): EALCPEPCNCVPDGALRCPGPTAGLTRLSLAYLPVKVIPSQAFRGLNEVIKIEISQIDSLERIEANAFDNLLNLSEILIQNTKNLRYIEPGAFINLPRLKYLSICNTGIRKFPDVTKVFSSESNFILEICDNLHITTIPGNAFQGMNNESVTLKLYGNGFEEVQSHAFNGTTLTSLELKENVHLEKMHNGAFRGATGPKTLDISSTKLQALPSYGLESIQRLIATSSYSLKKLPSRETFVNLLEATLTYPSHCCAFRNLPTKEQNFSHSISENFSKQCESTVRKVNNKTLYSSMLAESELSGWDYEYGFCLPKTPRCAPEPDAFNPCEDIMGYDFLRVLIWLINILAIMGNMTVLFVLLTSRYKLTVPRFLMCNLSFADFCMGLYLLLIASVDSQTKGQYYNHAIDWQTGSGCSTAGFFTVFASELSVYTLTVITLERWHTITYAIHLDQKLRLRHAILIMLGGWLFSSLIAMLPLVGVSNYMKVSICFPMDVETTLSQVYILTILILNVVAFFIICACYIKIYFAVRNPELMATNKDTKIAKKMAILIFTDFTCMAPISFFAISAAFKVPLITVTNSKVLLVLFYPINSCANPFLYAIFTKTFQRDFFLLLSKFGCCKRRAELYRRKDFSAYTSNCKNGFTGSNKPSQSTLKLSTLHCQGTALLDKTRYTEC

## O=C1Nc2ccc(-c3cc(C(F)(F)F)cc(C(F)(F)F)c3)cc2C(=O)N2CCN(C(=O)COc3ccc(OC(F)(F)F)cc3I)C[C@@H]12 [compound 6641]
[1]; Hit Hunter cAMP assay
  cAMP response through LHCGR: did not result in an increase of cAMP level
[1]; Log [M] -4.70
  RLU: 1280 RLU and 1080 RLU
[1]; Log [M] -5.18
  RLU: 1000 RLU
[1]; Log [M] -5.65
  RLU: 1080 RLU and 1000 RLU
[1]; Log [M] -6.13
  RLU: 1080 RLU
[1]; Log [M] -6.61
  RLU: 1040 RLU
[1]; Log [M] -7.08
  RLU: 1200 RLU and 920 RLU
[1]; Log [M] -7.56
  RLU: 1000 RLU
[1]; Log [M] -8.04
  RLU: 960 RLU and 680 RLU
[1]; Log [M] -8.52
  RLU: 1040 RLU
[1]; Log [M] -8.99
  RLU: 960 RLU and 1040 RLU
[2]; 6641, individual experiments
  EC50 (1)-(3): Inactive
[2]; 6641, mean of 3
  EC50 (AVERAGE): Inactive
[2]; individual experiments, FSK (2 µM) = 100% efficacy
  Emax (1)-(3): Inactive
[2]; mean of 3, FSK (2 µM) = 100% efficacy
  Emax (AVERAGE): Inactive

Reference: article PMC9636434, “Discovery of small molecule agonists of the Relaxin Family Peptide Receptor 2” (Communications Biology, 2022)
